In patent US11352340B2, “Pyridine and pyridimine compounds as PI3K-gamma inhibitors” (Incyte Corporation, priority 2016, dated 2022):
Counter-ions that a name gives are not always drawn. Like-named read-outs stand apart in the source and are kept apart here.

How the values were obtained:
[1] = molecular target: PI3Kδ (p110δ/p85α) Recombinant Human Protein (Homo sapiens (Human), UniProt O00329); assay: PI3Kδ Scintillation Proximity Assay; type: biochemical; settings: read-out: PI3K-delta SPA IC50
Chain of PI3Kδ (p110δ/p85α) Recombinant Human Protein (O00329 whole entry): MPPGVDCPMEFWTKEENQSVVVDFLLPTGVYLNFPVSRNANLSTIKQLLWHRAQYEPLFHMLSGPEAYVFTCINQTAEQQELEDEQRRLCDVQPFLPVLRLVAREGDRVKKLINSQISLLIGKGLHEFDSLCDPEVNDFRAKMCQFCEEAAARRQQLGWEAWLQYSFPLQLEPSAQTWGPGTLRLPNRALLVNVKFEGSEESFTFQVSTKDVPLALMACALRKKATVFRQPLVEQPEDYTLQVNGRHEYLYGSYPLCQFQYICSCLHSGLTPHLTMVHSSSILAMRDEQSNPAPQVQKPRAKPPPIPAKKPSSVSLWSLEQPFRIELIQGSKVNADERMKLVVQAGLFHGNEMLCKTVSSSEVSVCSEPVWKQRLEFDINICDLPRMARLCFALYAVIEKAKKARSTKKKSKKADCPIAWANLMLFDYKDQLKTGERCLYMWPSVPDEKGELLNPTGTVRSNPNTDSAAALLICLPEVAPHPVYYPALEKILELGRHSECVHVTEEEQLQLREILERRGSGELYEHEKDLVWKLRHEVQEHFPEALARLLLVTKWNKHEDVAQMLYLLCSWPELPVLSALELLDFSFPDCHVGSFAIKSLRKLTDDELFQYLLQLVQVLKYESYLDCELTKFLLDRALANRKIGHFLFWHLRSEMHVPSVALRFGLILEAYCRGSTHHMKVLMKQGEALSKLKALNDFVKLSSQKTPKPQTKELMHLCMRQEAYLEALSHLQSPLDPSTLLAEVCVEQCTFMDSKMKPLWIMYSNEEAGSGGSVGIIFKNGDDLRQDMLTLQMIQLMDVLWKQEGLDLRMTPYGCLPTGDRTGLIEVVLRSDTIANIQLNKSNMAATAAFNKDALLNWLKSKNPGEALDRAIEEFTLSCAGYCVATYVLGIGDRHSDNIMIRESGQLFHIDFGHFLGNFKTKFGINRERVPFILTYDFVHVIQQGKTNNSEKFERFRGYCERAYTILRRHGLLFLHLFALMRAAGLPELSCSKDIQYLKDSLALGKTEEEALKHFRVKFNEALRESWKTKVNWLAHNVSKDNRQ
Chain of PI3Kδ (p110δ/p85α) Recombinant Human Protein (P27986 whole entry partner): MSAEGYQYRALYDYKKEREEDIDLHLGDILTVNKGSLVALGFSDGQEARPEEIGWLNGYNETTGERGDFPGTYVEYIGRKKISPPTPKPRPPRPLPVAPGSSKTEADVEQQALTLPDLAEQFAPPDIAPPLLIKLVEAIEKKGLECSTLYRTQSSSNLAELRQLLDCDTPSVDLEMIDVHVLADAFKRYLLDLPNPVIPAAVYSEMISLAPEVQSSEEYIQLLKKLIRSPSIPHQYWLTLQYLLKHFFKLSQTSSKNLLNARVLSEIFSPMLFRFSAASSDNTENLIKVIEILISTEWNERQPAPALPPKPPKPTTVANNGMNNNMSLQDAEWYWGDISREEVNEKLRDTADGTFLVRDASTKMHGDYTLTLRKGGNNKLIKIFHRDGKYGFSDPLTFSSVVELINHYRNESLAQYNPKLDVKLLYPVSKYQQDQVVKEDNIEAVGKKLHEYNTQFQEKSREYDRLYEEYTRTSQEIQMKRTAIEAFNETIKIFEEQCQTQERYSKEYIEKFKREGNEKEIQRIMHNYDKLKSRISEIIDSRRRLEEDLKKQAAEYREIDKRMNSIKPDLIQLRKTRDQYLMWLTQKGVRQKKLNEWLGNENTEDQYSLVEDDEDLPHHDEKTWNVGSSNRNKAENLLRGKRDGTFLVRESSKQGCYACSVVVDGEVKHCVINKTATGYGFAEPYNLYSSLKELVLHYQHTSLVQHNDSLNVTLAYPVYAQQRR
In short: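 IC50 was fitted to percent solvent-control activity from SPA scintillation counts after WGA bead capture of 33P-labelled lipid product. Reaction: 120 min, room temperature, 3.4 nM p110δ/p85α, 20 μM PIP2, 2 μM ATP with tracer, MOPS pH 6.7 buffer containing MgCl2, DTT, CHAPS, 2% DMSO.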

[2] = molecular target: PI3Kγ (p110γ) Recombinant Human Protein (Homo sapiens (Human), UniProt P48736); assay: PI3K-γ Scintillation Proximity Assay; type: biochemical; settings: read-out: PI3K-gamma SPA IC50
Chain of PI3Kγ (p110γ) Recombinant Human Protein (P48736 whole entry): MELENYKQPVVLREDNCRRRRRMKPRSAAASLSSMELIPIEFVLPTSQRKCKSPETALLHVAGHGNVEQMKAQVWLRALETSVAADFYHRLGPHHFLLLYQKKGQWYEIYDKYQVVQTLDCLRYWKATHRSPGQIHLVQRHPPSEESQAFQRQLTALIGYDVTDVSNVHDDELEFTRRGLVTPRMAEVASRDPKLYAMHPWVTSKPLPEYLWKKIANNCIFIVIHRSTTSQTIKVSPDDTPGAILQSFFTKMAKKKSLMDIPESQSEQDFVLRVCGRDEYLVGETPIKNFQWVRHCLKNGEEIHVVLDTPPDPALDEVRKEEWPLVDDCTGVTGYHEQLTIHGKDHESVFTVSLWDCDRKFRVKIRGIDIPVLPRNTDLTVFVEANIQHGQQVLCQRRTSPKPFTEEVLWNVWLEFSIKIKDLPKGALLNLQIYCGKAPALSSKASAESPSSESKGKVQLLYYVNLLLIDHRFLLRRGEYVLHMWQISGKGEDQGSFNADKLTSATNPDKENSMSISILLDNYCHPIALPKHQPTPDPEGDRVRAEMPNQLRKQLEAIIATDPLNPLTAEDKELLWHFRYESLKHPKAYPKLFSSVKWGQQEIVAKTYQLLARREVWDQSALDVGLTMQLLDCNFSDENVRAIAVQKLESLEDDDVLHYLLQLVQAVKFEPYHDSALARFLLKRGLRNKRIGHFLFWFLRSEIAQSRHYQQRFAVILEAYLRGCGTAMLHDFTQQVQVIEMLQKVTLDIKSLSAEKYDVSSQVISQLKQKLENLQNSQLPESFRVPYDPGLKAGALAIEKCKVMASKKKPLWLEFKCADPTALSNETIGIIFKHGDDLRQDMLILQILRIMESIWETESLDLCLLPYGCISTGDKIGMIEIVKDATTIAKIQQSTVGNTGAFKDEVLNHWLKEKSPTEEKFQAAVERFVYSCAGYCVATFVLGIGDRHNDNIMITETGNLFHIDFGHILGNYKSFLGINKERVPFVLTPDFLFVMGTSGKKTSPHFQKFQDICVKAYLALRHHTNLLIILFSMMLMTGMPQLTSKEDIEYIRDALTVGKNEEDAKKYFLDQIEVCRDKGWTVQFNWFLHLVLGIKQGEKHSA
In short: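 Radiometric SPA: reaction at room temperature for 120 min using 2 μM ATP with [γ-33P]ATP tracer, 20 μM PIP2 substrate and 13 nM human PI3Kγ (MOPS pH 6.7, MgCl2, DTT, CHAPS; 2% DMSO). EDTA quench with WGA beads, scintillation count, and IC50 fit of percent-of-control activity.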

[3] = tested on: Phosphorylated Ribosomal Protein S6 (RPS6) in THP-1 cells; assay: THP-1 RPS6 ELISA Assay; type: cell-based, Human; settings: MCP-1 stimulated, phospho-RPS6 ELISA, read-out: THP p-RPS6 ELISA IC50
In short: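 Phospho-RPS6 in lysates measured by ELISA at 450 nm, corrected at 540 nm, after MCP-1 challenge (10 nM, 15 min) of THP-1 cells that were starved overnight and exposed to test compound for 2 h at 37° C, 2×10^5 cells/well. Curve fit of percent inhibition gives IC50.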

| Compound | IC50 [1] [nM] | IC50 [2] [nM] | IC50 ([3]; Homo sapiens) [nM] | IC50 [3] [nM] |
| --- | --- | --- | --- | --- |
| Cc1[nH]c(-c2cc(-c3cncc(N4CCOCC4)c3)ccn2)nc1CO [Example 122, [5-Methyl-2-(5-morpholin-4-yl-3,4′-bipyridin-2′-yl)-1H-imidazol-4-yl]methanol] | ≤ 500 | ≤ 500 | 1000 to 5000 |  |
| O=C(Nc1cncc(-c2ccnc(-c3ncc(-c4ccccc4)[nH]3)c2)c1)C1CCCC1 [Example 138, N-(2′-(5-Phenyl-1H-imidazol-2-yl)-3,4′-bipyridin-5-yl)cyclopentanecarboxamide] | ≤ 100 | ≤ 500 | > 5000 |  |
| Cc1nc(-c2cc(-c3cncc(C(=O)N4CC[C@@H](F)C4)c3)ccn2)[nH]c1C [Example 155, (R)-(2′-(4,5-Dimethyl-1H-imidazol-2-yl)-3,4′-bipyridin-5-yl)(3-fluoropyrrolidin-1-yl)methanone trifluoroacetate salt] | ≤ 50 | ≤ 50 | ≤ 300 |  |
| Cc1nc(-c2cc(-c3cncc(C(=O)N4CCC5(CCOCC5)CC4)c3)ccn2)[nH]c1C [Example 156, (2′-(4,5-Dimethyl-1H-imidazol-2-yl)-3,4′-bipyridin-5-yl)(3-oxa-9-azaspiro[5.5]undecan-9-yl)methanone trifluoroacetate salt] | ≤ 50 | ≤ 50 | 1000 to 5000 |  |
| Cc1nc(-c2cc(-c3cncc(C(=O)NC(C)C)c3)ccn2)[nH]c1C [Example 157, 2′-(4,5-Dimethyl-1H-imidazol-2-yl)-N-isopropyl-3,4′-bipyridine-5-carboxamide trifluoroacetate salt] | ≤ 500 | ≤ 100 | 1000 to 5000 |  |
| Cc1nc(-c2cc(-c3cncc(C(=O)N4CCN(C5CCN(C)CC5)CC4)c3)ccn2)[nH]c1C [Example 158, (2′-(4,5-Dimethyl-1H-imidazol-2-yl)-3,4′-bipyridin-5-yl)(4-(1-methylpiperidin-4-yl)piperazin-1-yl)methanone] | ≤ 100 | ≤ 50 | 1000 to 5000 |  |
| CC(=O)N1CCN(C(=O)c2cncc(-c3ccnc(-c4nc(C)c(C)[nH]4)c3)c2)CC1 [Example 159, 1-(4-(2′-(4,5-Dimethyl-1H-imidazol-2-yl)-3,4′-bipyridine-5-carbonyl)piperazin-1-yl)ethanone trifluoroacetate salt] | ≤ 100 | ≤ 50 | 1000 to 5000 |  |
| Cc1nc(-c2cc(-c3cncc(C(=O)NC4CCOCC4)c3)ccn2)[nH]c1C [Example 160, 2′-(4,5-Dimethyl-1H-imidazol-2-yl)-N-(tetrahydro-2H-pyran-4-yl)-3,4′-bipyridine-5-carboxamide trifluoroacetate salt] | ≤ 500 | ≤ 50 | 1000 to 5000 |  |
| Cc1nc(-c2cc(-c3cncc(C(=O)N4CC[C@@H](N(C)C)C4)c3)ccn2)[nH]c1C [Example 161, (R)-(2′-(4,5-Dimethyl-1H-imidazol-2-yl)-3,4′-bipyridin-5-yl)(3-(dimethylamino)pyrrolidin-1-yl)methanone trifluoroacetate salt] | ≤ 100 | ≤ 50 | ≤ 300 |  |
| Cc1nc(-c2cc(-c3cncc(C(=O)N4CC[C@@H](O)C4)c3)ccn2)[nH]c1C [Example 163, (R)-(2′-(4,5-Dimethyl-1H-imidazol-2-yl)-3,4′-bipyridin-hydroxypyrrolidin-1-yl)methanone trifluoroacetate salt] | ≤ 50 | ≤ 50 |  | ≤ 300 |

The remaining lines, values ahead:

| IC50 [1] [nM] | IC50 [2] [nM] | IC50 ([3]; Homo sapiens) [nM] | IC50 [3] [nM] | Compound |
| --- | --- | --- | --- | --- |
| ≤ 50 | ≤ 50 | ≤ 300 |  | Cc1[nH]c(-c2cc(-c3cncc(S(C)(=O)=O)c3)ccn2)nc1C(F)F [Example 121, 2′-[4-(Difluoromethyl)-5-methyl-1H-imidazol-2-yl]-5-(methylsulfonyl)-3,4′-bipyridine Trifluoroacetate Salt] |
| ≤ 50 | ≤ 50 | ≤ 300 |  | Cc1[nH]c(-c2cc(-c3cncc(N4CCOCC4)c3)ccn2)nc1CCO [Example 123, 2-[5-Methyl-2-(5-morpholin-4-yl-3,4′-bipyridin-2′-yl)-1H-imidazol-4-yl]ethanol] |
| ≤ 50 | ≤ 100 | 300 to 1000 |  | COC(=O)c1nc(-c2cc(-c3cncc(N4CCOCC4)c3)ccn2)[nH]c1C [Example 125, Methyl 5-methyl-2-(5-morpholin-4-yl-3,4′-bipyridin-2′-yl)-1H-imidazole-4-carboxylate] |
| ≤ 50 | ≤ 50 | 1000 to 5000 |  | Nc1cncc(-c2ccnc(-c3ncc(-c4ccccc4)[nH]3)c2)c1 [Example 127, 2′-(5-Phenyl-1H-imidazol-2-yl)-3,4′-bipyridin-5-amine Trifluoroacetate Salt] |
| ≤ 50 | ≤ 50 | 300 to 1000 |  | CCS(=O)(=O)Nc1cncc(-c2ccnc(-c3ncc(-c4ccccc4)[nH]3)c2)c1 [Example 130, N-[2′-(5-Phenyl-1H-imidazol-2-yl)-3,4′-bipyridin-5-yl]ethanesulfonamide Trifluoroacetate Salt] |
| ≤ 50 | ≤ 50 | > 5000 |  | COCC(=O)Nc1cncc(-c2ccnc(-c3ncc(-c4ccccc4)[nH]3)c2)c1 [Example 131, 2-Methoxy-N-[2′-(5-phenyl-1H-imidazol-2-yl)-3,4′-bipyridin-5-yl]acetamide Trifluoroacetate Salt] |
| ≤ 50 | ≤ 50 | > 5000 |  | c1ccc(-c2cnc(-c3cc(-c4cncc(NCC5CCOCC5)c4)ccn3)[nH]2)cc1 [Example 141, 2′-(5-Phenyl-1H-imidazol-2-yl)-N-(tetrahydro-2H-pyran-4-ylmethyl)-3,4′-bipyridin-5-amine Trifluoroacetate Salt] |
| ≤ 50 | ≤ 50 | > 5000 |  | c1ccc(-c2cnc(-c3cc(-c4cncc(NC5CCOCC5)c4)ccn3)[nH]2)cc1 [Example 142, 2′-(5-Phenyl-1H-imidazol-2-yl)-N-(tetrahydro-2H-pyran-4-yl)-3,4′-bipyridin-5-amine trifluoroacetate salt] |
| ≤ 50 | ≤ 50 | ≤ 300 |  | Cc1nc(-c2cc(-c3cncc(C(=O)N4CC[C@H](O)C4)c3)ccn2)[nH]c1C [Example 146, (S)-(2′-(4,5-Dimethyl-1H-imidazol-2-yl)-3,4′-bipyridin-5-yl)(3-hydroxypyrrolidin-1-yl)methanone] |
| ≤ 50 | ≤ 50 | ≤ 300 |  | Cc1nc(-c2cc(-c3cncc(C(=O)N4CCCC4)c3)ccn2)[nH]c1C [Example 151, (2′-(4,5-Dimethyl-1H-imidazol-2-yl)-3,4′-bipyridin-5-yl)(pyrrolidin-1-yl)methanone] |
| ≤ 50 | ≤ 50 | 300 to 1000 |  | Cc1nc(-c2cc(-c3cncc(C(=O)N4CC(O)C4)c3)ccn2)[nH]c1C [Example 152, (2′-(4,5-Dimethyl-1H-imidazol-2-yl)-3,4′-bipyridin-5-yl)(3-hydroxyazetidin-1-yl)methanone trifluoroacetate salt] |
| ≤ 50 | ≤ 50 | ≤ 300 |  | Cc1nc(-c2cc(-c3cncc(C(=O)N4CC(C#N)C4)c3)ccn2)[nH]c1C [Example 153, 1-(2′-(4,5-Dimethyl-1H-imidazol-2-yl)-3,4′-bipyridine-5-carbonyl)azetidine-3-carbonitrile trifluoroacetate salt] |
